Measured values as given in article PMC5590075, “Synthesis, Antimicrobial, and Antioxidant Activities of Chalcogen-Containing Nitrone Derivatives from (R)-citronellal” (Medicines, 2017).
Several values for one entry are separate records, joined by “and”; a condition that tells them apart may be missing. Equal values may be shown once.

Key:
DPPH radical scavenging = conditions: for DPPH radical scavenging, percentage of inhibition in relation to control: mean ± SD (n = 3); for DPPH radical scavenging activity (in words): 10–500 μM tested
Protocol: The antioxidant properties of the synthesized compounds (5a–d and 10) were evaluated by three different methods in vitro: DPPH (1,1-diphenyl-2-picryl-hydrazyl) and ABTS^+ (2,2′-azino-bis(3-ethylbenzthiazoline-6-sulfonic acid) radical scavenging ability and ferric ion reducing antioxidant power (FRAP). All drugs were dissolved in dimethyl sulfoxide (DMSO) at concentrations of 1–500 µM. These assays were performed according to the literature and details of these experiments are described elsewhere (see the ‘Results and Discussion’ section for the references). […]
2.3. Antioxidant activity assays
The antioxidant properties of the synthesized compounds were evaluated by three different methods in vitro: DPPH and ABTS+ radical scavenging activity and ferric ion reducing antioxidant power (FRAP). All drugs were dissolved in dimethyl sulfoxide (DMSO). The experimental results were given as the means ± standard deviation (SD) to show the variations among the groups. The statistical analysis was performed using one‐way analysis of variance (ANOVA) followed by Newman‐Keuls multiple comparison test when appropriate. The differences were considered statistically significant at a probability of less than 5% (p < 0.05). All tests were performed at least three times in duplicate. The IC50 values (the concentration of sample required to scavenge 50% of the free radicals) were calculated from the graph of the scavenging effect percentage versus the […]
2.4. Radical Scavenging Activity
To determine if compounds 5a–d and 10 present in vitro antioxidant activity against free radicals, DPPH and ABTS+ scavenging capability were evaluated at different concentrations.
The DPPH scavenging activity of compounds 5a–d and 10 (10–500 μM) was determined in accordance with the method of Sharma and Bhat and the decrease in the absorbance at 517 nm […]
The ABTS radical scavenging activity was determined according to the method described by Erel. Different concentrations of compounds 5a–d and 10 (10–500 μ M) were mixed with the ABTS+ solution, and the decrease in the absorbance at 734 nm was recorded. […]
(§1) values, as calculated by the following equation:
I% = [(Ac−As/Ac) × 100] (1) […]

[1] = Ferric ion reducing antioxidant power (FRAP); conditions: mean ± SD (n = 3)
Protocol: The antioxidant properties of the synthesized compounds (5a–d and 10) were evaluated by three different methods in vitro: DPPH (1,1-diphenyl-2-picryl-hydrazyl) and ABTS^+ (2,2′-azino-bis(3-ethylbenzthiazoline-6-sulfonic acid) radical scavenging ability and ferric ion reducing antioxidant power (FRAP). All drugs were dissolved in dimethyl sulfoxide (DMSO) at concentrations of 1–500 µM. These assays were performed according to the literature and details of these experiments are described elsewhere (see the ‘Results and Discussion’ section for the references).
as §1
I% = [(Ac−As/Ac) × 100] (1)
3. Ferric ion reducing antioxidant power (FRAP)
reducing capacity of compounds 5a–d and 10.
[8] with slight modifications. […]

[2] = test system: Escherichia coli O157: H7 NCTC 12900; assay: agar disk diffusion test; format: cell-based; conditions: E. coli O157:H7, 1.0 × 10^8 CFU.mL^−1; 20 μL compound diluted in DMSO (1:1) per 6 mm disc; streptomycin 10 µg; mean of two repetitions
Description: (§2) To evaluate the antimicrobial potential of the synthesized compounds, the following reference strains of bacteria, that are economically important in foods, were employed: Gram-positive Listeria monocytogenes ATCC 7644, Staphylococcus aureus ATCC 25923, and Bacillus cereus ATCC 11778; Gram-negative Salmonella Typhimurium ATCC 14028, Escherichia coli O157: H7 NCTC 12900 and the clinically important Pseudomonas aeruginosa ATCC 15442.
(§3) The antimicrobial activity assay using the disk diffusion test was realized using the methodology that is recommended by the Clinical Laboratory Standards Institute (CLSI). The determination of the minimum inhibitory concentration (MIC) and minimum bactericidal concentration (MBC) was performed using the macro dilution tube method, in accordance with Rota et al., with modifications. Details of these assays are provided in the Supplemental Material. […]
(§4) 2.1. Antimicrobial activity assay using the disk diffusion test
(§5) The disk diffusion test followed the methodology recommended by the Clinical Laboratory Standards Institute CLSI [4]. The inoculum was standardized by standard McFarland to the concentration of 10^8 CFU.mL−1 and spread on the surface of a Petri dish containing Mueller‐Hinton (MH) agar. Then, the paper disc (6 mm) was put on a plate impregnated with 20 μL of the testing compound previously diluted in DMSO (1:1) and incubated at 37 °C for 24 hours. Zone of inhibition ≥20 mm were considered as strong inhibition, <20–12 mm as moderate inhibition, and <12 mm no inhibition. A positive control with streptomycin antibiotic (10 μg) and a negative one, with paper discs impregnated with distilled water, were used […]
(§6) 2.4. Radical Scavenging Activity […]
(§7) The ABTS radical scavenging activity was determined according to the method described by Erel. Different concentrations of compounds 5a–d and 10 (10–500 μ M) were mixed with the ABTS+ solution, and the decrease in the absorbance at 734 nm was recorded.

[3] = test system: Salmonella Typhimurium ATCC 14028; assay: agar disk diffusion test; format: cell-based; conditions: S. Typhimurium, 1.0 × 10^8 CFU.mL^−1; 20 μL compound diluted in DMSO (1:1) per 6 mm disc; streptomycin 10 µg; mean of two repetitions
Description: as §2, §3, §4, §5, §6, §7

[4] = test system: Pseudomonas aeruginosa ATCC 15442; assay: agar disk diffusion test; format: cell-based; conditions: P. aeruginosa, 1.0 × 10^8 CFU.mL^−1; 20 μL compound diluted in DMSO (1:1) per 6 mm disc; streptomycin 10 µg; mean of two repetitions
Description: as §2, §3, §4, §5, §6, §7

[5] = test system: Bacillus cereus ATCC 11778; assay: agar disk diffusion test; format: cell-based; conditions: B. cereus, 1.0 × 10^8 CFU.mL^−1; 20 μL compound diluted in DMSO (1:1) per 6 mm disc; streptomycin 10 µg; mean of two repetitions
Description: as §2, §3, §4, §5, §6, §7

[6] = test system: Staphylococcus aureus ATCC 25923; assay: agar disk diffusion test; format: cell-based; conditions: S. aureus, 1.0 × 10^8 CFU.mL^−1; 20 μL compound diluted in DMSO (1:1) per 6 mm disc; streptomycin 10 µg; mean of two repetitions
Description: as §2, §3, §4, §5, §6, §7

[7] = test system: Listeria monocytogenes ATCC 7644; assay: agar disk diffusion test; format: cell-based; conditions: L. monocytogenes, 1.0 × 10^8 CFU.mL^−1; 20 μL compound diluted in DMSO (1:1) per 6 mm disc; streptomycin 10 µg; mean of two repetitions
Description: as §2, §3, §4, §5, §6, §7

| Compound | DPPH radical scavenging, percentage of inhibition in relation to control (DPPH radical scavenging; 100 μM) | DPPH radical scavenging, percentage of inhibition in relation to control (DPPH radical scavenging; 500 μM) | DPPH radical scavenging activity (in words) (DPPH radical scavenging) | Ferric ion reducing antioxidant power (FRAP), absorbance at 593 nm ([1]; 5 μM) | Ferric ion reducing antioxidant power (FRAP), absorbance at 593 nm ([1]; 10 μM) | Ferric ion reducing antioxidant power (FRAP), absorbance at 593 nm ([1]; 50 μM) | Ferric ion reducing antioxidant power (FRAP), absorbance at 593 nm ([1]; 100 μM) | Inhibition Zone [2] | Inhibition Zone [3] | Inhibition Zone [4] | Inhibition Zone [5] | Inhibition Zone [6] | Inhibition Zone [7] | Ferric ion reducing antioxidant power (FRAP), absorbance at 593 nm ([1]; 1 μM) | Ferric ion reducing antioxidant power (FRAP), absorbance at 593 nm ([1]; 500 μM) |
| --- | --- | --- | --- | --- | --- | --- | --- | --- | --- | --- | --- | --- | --- | --- | --- |
| CC(C)=CCCC(C)C(/C=[N+](\C)[O-])Sc1ccccc1 (stereo not shown) [5a, (E)-N,3,7-Trimethyl-2-(phenylthio)oct-6-en-1-imine oxide] | 2.43 ± 1.08% | 20.31 ± 1.26 % | demonstrated DPPH radical scavenging activity | 0.165 ± 0.007 | 0.207 ± 0.019 | 0.572 ± 0.023 | 1.039 ± 0.067 | 11 mm | 8.5 mm | 8.5 mm | 21.5 mm | 15 mm | 18 mm | – | – |
| CC(C)=CCCC(C)(C/C=[N+](\C)[O-])Sc1ccccc1 (stereo not shown) [5c, (E)-N,3,7-trimethyl-3-(phenylthio)oct-6-en-1-imine oxide] | 2.43 ± 0.61% | 29.34 ± 1.00 % | demonstrated DPPH radical scavenging activity | – | 0.153 ± 0.047 | 0.543 ± 0.047 | 1.121 ± 0.160 | 21.5 mm | – | 24 mm | 24.5 mm | 24 mm | 26.0 mm and 26 mm | – | – |
| CC(C)=CCCC(C)C/C=[N+](\C)[O-] (stereo not shown) [5d, (E)-N,3,7-trimethyloct-6-en-1-imine oxide] | – | – | did not present effect | 0.280 ± 0.022 | 0.412 ± 0.055 | 1.198 ± 0.024 | – | 22.5 mm | 23 mm | 23 mm | 29 mm | 24.5 mm | 31.0 mm and 31 mm | 0.166 ± 0.008 | – |
| CC(C)=CCC[C@@H](C)C(/C=N/O)[Se]c1ccccc1 (stereo partly drawn) [compound 10, (3R,E)-3,7-dimethyl-2-(phenylselanyl)oct-6-enal oxime] | – | – | did not present effect | – | 0.084 ± 0.010 | 0.180 ± 0.008 | 0.257 ± 0.007 | 9 mm | 10.5 mm | 9 mm | 19 mm | 22 mm | 21 mm | – | 1.291 ± 0.045 |
